Measurements published in patent US20240116984A1, “MODIFIED PEPTIDES FOR THE INHIBITION OF ABNORMAL TAU ACCUMULATION” (University of Notre Dame du Lac, priority 2021, published 2024).
“Also recorded” adds a separate entry of the source. Starred links: 1 amine or outer side, 2 acyl side, 3 side chain; linkers in the order of their positions; H or OH if unused. Non-standard residues stand in square brackets, D forms with d. Residues, ends and D or L forms follow the SMILES beside them. Primed or numbered codes have the meaning given here. *: point of attachment. aIle′ = Ile with backbone N-amino (N-aminated amide nitrogen), CC[C@H](C)[C@@H](C(=O)[*:2])N(N)[*:1]; aVal = Val with backbone N-amino (N-aminated amide nitrogen), CC(C)[C@@H](C(=O)[*:2])N(N)[*:1]; X2 = NN([C@@H](Cc1ccc(O)cc1)C(=O)[*:2])[*:1]; X1 = CC[C@H](C)[C@@H](C(=O)[*:2])N(N)[*:1]; N(NH2)LysNH2 = NCCCC[C@@H](C(N)=O)N(N)*; X3 = CC(C)[C@@H](C(=O)[*:2])N(N)[*:1]; N(NH2)Lys = NCCCC[C@H](NN)C(=O)O

How the values were obtained:
[1] = test system: Recombinant tauP301L (0N4R); assay: Thioflavin T (ThT) fluorescence aggregation assay of recombinant tauP301L; format: biochemical, human; settings: Tau 10 μM : inhibitor 20 μM (2-fold molar excess), heparin, 48 h
Experimental: Recombinant tauP301L (10 μM final concentration) and NAP inhibitors 20 μM final concentration) were mixed in an aggregation buffer (100 mM sodium acetate, 10 μM ThT, 10 μM heparin, 2 mM DTT, 0.5% DMSO, pH 7.4) in a 96-well clear bottom black plate with a final reaction volume of 200 μL. The plate was then sealed with a clear sealing film and allowed to incubate at 37° C. with continuous shaking in a Biotek Synergy H1 microplate reader. An automated method was used to carry out ThT fluorescence measurements at an excitation wavelength of 444 nm and an emission wavelength of 485 nm at an interval of every 5 minutes for 48 hours. Experiments were carried out in technical replicates on at least two different days. Every experiment included control wells that lacked tau301L, heparin, or NAPs. The average of tau-only (no heparin) wells was used to subtract background fluorescence and the average of the first and last 10 data points of tau+heparin wells, after blank subtraction, was used to normalize the data. All data plots were generated with SigmaPlot.

tauP301L fibrils = assay: Transmission electron microscopy of heparin-induced tauP301L fibrils; format: biochemical, human; settings: two-fold molar excess of inhibitor, 96 h
Experimental: For analyzing fibrils by transmission electron microscopy (TEM), aggregation was carried out under conditions similar to the assay above but with ThT excluded and a final reaction volume of 100 μL Samples were incubated in a microcentrifuge tube for 4 days at 37° C. with a mixing speed of 100 rpm. A 10 μL aliquot of the sample was then applied to 400-meshed formvar/carbon-coated copper grids and negative stained with 2% uranyl-acetate. Micrographs were taken on a JEOL 2011 TEM at 200 kV.

[2] = Human serum stability assay; format: in vitro ADME; settings: 25% human serum, 24 h
Experimental: The stability of NAPs in 25% human serum (Millipore Sigma) was assessed by HPLC. The reaction was started by adding NAPs at a final concentration of 500 μM in pre-warmed serum. The mixture was incubated at 37° C. for 24 h. A 100 μL aliquot of the reaction mixture was taken out at 0 h, 1 h, 4 h, and 24 h and was mixed with an equal volume of 20% TCA and incubated at 4° C. for 15 minutes to precipitate serum proteins. After centrifugation at 12000 rpm for 10 min, the supernatant was collected and mixed with an internal standard (1 mg/mL of Cbz-Tyr-OH dissolved in MeCN) and stored at −20° C. Samples were then analyzed by LC-MS and the percentage of peptide remaining was calculated by integrating peaks.

[3] = test system: HEK293 cells stably expressing tau-RD (P301L/V337M)-YFP; format: cell-based, human; settings: 36 h
Experimental: TauP301L was diluted to a final concentration of 10 μM in an aggregation buffer containing 100 mM sodium acetate, 10 μM heparin, 2 mM DTT, pH 7.4. The protein was incubated in a microcentrifuge tube for 4 days at 37° C. with a shaking speed of 100 rpm. Control vials included those wherein (1) buffer was added in place of tauP301L, and (2) buffer was added in place of heparin.
(§1) HEK293 cells stably expressing tau-RD (LM)-YFP were cultured in DMEM media containing 10% FBS, 1% penicillin/streptomycin, and 1% Glutamax™ (Gibco) in a 75 cm^2 cell culture flask under 5% CO2 at 37° C. For each experiment, cells were plated at a density of 15000 cells/well into 96 well tissue culture plates.
TauP301L fibrils were prepared as described above (see section on fibril formation) and sonicated for 3 minutes prior to use in this assay. In a reaction volume of 40 μL, 8 μL of fibrils was diluted with 31 μL of low-serum Opti-MEM® (Gibco) media and then mixed with 1 μL of NAPs (DMSO concentration was constant across various concentration of inhibitors). […] IC50 values were calculated by fitting the data set using sigmoidal logistic 4 parameter equation. Error bars represent standard deviation from technical replicates. % Tau infection was calculated using following formula: […]

[4] = test system: human neuroblastoma SH-SY5Y cells; assay: MTT cell viability assay on SH-SY5Y cells; format: cell-based; settings: 10 μM and 50 μM, 48 h
Experimental: MTT cell viability assays were carried out on both HEK293 cells stably expressing tau-RD (LM)-YFP and SH-SY5Y cells. Cells were cultured in DMEM/F12 complete media containing 10% FBS, 1% penicillin/streptomycin and 1% Glutamax™ (Gibco) in a 75 cm^2 cell culture flask under 5% CO2 at 37° C. Cell viability was determined using MTT reduction assay. Briefly, 15,000 cells/well were plated in a 96 well tissue culture plate and were allowed to incubate overnight in a CO2 incubator. The media was aspirated, and the NAP inhibitor prepared in complete media was added at a given final concentration. The plate was then allowed to incubate for additional 48 h in a CO2 incubator and the media was aspirated again and replaced with 0.5 mg/mL of MTT prepared in complete media and incubated for additional 3 h. Media was then replaced with DMSO to dissolve formazan crystals and the absorbance was measured at 570 nm using Synergy H1 micro plate reader. Each data set were collected from technical replicates on at least two different days.

[5] = test system: HEK293 cells stably expressing tau-RD (P301L/V337M)-YFP; assay: Cellular seeding assay, seeding by monomeric tau co-incubated with NAPs; format: cell-based, human; settings: 0.19 μM Tau, 4 days co-incubation, cells 48 h
Experimental: as §1
Monomeric tauP301L was co-incubated with NAPs for 4 days in an aggregation buffer at 37° C. (see above section). Following incubation, the reaction mixture was diluted in low serum Opti-MEM® media (Gibco), mixed with lipofectamine 2000 in 20:1 ratio (complex:lipofectamine) and allowed to incubate for an additional 20 minutes at RT. A mixture of 0.19 μM of Tau+1.9 μM or 0.009 μM of inhibitors (final concentrations) was added to the cells. Cells were incubated for additional 48 h before taking measurements on a BioTek Cytation 5 cell imager and microplate reader. 10×10 pictures/well were taken at 20× magnification under FITC channel and the punctate counting was carried out using built-in software. Each data set was collected from technical replicates on at least two different days. Every experiment included control wells (no tau, no heparin, and no NAP). All data plots were generated with SigmaPlot. Error bars shown are standard deviation from technical replicates.

[6] = biological target: T1, synthetic, full-length Aβ42 (Homo sapiens, UniProt P05067); assay: ThT fluorescence assay with Aβ42; format: biochemical; settings: Aβ42 40 μM
T1 construct: synthetic, full-length Aβ42 (40 μM)
T1 sequence (P05067 672-713 limits assumed): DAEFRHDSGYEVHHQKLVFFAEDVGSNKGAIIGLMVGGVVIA
Experimental: A peptidomimetic approach to tau inhibition offers prospects for achieving selectivity over other amyloids rich in β structure. As a preliminary test, the best-performing tau mimic, compound 12 (EG09; SEQ ID NO: 18), was selected and its effect on Aβ42 aggregation in vitro was determined (FIG. 11).

Compound	effect on end-point ThT fluorescence of tauP301L (inhibition of Tau aggregation) [1]	fibril morphology / inhibition of Tau fibril formation by TEM (tauP301L fibrils)	also measured
Ac-Val-Gln-aIle-Val-Tyr-Lys-NH2 (Ac-VQ[aIle′]VYK-NH2; SMILES CC[C@H](C)[C@@H](C(=O)N[C@H](C(=O)N[C@@H](Cc1ccc(O)cc1)C(=O)N[C@@H](CCCCN)C(N)=O)C(C)C)N(N)C(=O)[C@H](CCC(N)=O)NC(=O)[C@@H](NC(C)=O)C(C)C) [Compound 6]	significantly reduce	short, immature rod-like fibrils	
CC[C@H](C)[C@H](NC(=O)[C@H](CCC(N)=O)NC(=O)[C@@H](NC(C)=O)C(C)C)C(=O)N(N)[C@H](C(=O)N[C@@H](Cc1ccc(O)cc1)C(=O)N(N)[C@@H](CCCCN)C(N)=O)C(C)C [Compound 13, Ac-Val-Gln-Ile-aVal-Tyr-aLys-NH2] (Ac-VQI[X3]Y-{N(NH2)LysNH2})			stability in human serum [2]: remarkably stable; IC50 [3]: ~5 µM; cytotoxic effect, MTT assay [4]: no appreciable toxicity; also recorded: non-cytotoxic
Ac-aVal-Gln-Ile-Val-Tyr-Lys-NH2 (Ac-[aVal]QIVYK-NH2; SMILES CC[C@H](C)[C@H](NC(=O)[C@H](CCC(N)=O)NC(=O)[C@H](C(C)C)N(N)C(C)=O)C(=O)N[C@H](C(=O)N[C@@H](Cc1ccc(O)cc1)C(=O)N[C@@H](CCCCN)C(N)=O)C(C)C) [Compound 5]	significantly reduce	short, immature rod-like fibrils	
Ac-Val-Gln-Ile-Val-Tyr-aLys-NH2 (Ac-VQIVY[N(NH2)Lys]-NH2; SMILES CC[C@H](C)[C@H](NC(=O)[C@H](CCC(N)=O)NC(=O)[C@@H](NC(C)=O)C(C)C)C(=O)N[C@H](C(=O)N[C@@H](Cc1ccc(O)cc1)C(=O)N(N)[C@@H](CCCCN)C(N)=O)C(C)C) [Compound 9]		did not inhibit Tau fibril formation	
Ac-aVal-Gln-aIle-Val-aTyr-Lys-NH2 [Compound 14]		did not inhibit Tau fibril formation	
Ac-aVal-Gln-aIle-Ile-Asn-Lys-NH2 (Ac-[aVal]Q[aIle′]INK-NH2; SMILES CC[C@H](C)[C@H](NC(=O)[C@H]([C@@H](C)CC)N(N)C(=O)[C@H](CCC(N)=O)NC(=O)[C@H](C(C)C)N(N)C(C)=O)C(=O)N[C@@H](CC(N)=O)C(=O)N[C@@H](CCCCN)C(N)=O) [Compound 4]	significantly reduce	non-fibrillary amorphous aggregates; also recorded: non-fibrillary, amorphous aggregates	seeding capacity of monomeric tauP301L pre-treated with inhibitor ([5]; 0.009 μM inhibitor): far weaker anti-seeding activity; seeding capacity of monomeric tauP301L pre-treated with inhibitor ([5]; 1.9 μM inhibitor): far weaker anti-seeding activity
Ac-aVal-Gln-aIle-Val-Tyr-Lys-NH2 (Ac-[aVal]Q[aIle′]VYK-NH2; SMILES CC[C@H](C)[C@@H](C(=O)N[C@H](C(=O)N[C@@H](Cc1ccc(O)cc1)C(=O)N[C@@H](CCCCN)C(N)=O)C(C)C)N(N)C(=O)[C@H](CCC(N)=O)NC(=O)[C@H](C(C)C)N(N)C(C)=O) [Compound 10]		did not inhibit Tau fibril formation	
Ac-Val-Gln-aIle-Ile-Asn-Lys-NH2 (Ac-VQ[aIle′]INK-NH2; SMILES CC[C@H](C)[C@H](NC(=O)[C@H]([C@@H](C)CC)N(N)C(=O)[C@H](CCC(N)=O)NC(=O)[C@@H](NC(C)=O)C(C)C)C(=O)N[C@@H](CC(N)=O)C(=O)N[C@@H](CCCCN)C(N)=O) [Compound 2]	significantly reduce	short, immature rod-like fibrils	
CC[C@H](C)[C@@H](C(=O)N[C@H](C(=O)N(N)[C@@H](Cc1ccc(O)cc1)C(=O)N[C@@H](CCCCN)C(N)=O)C(C)C)N(N)C(=O)[C@H](CCC(N)=O)NC(=O)[C@@H](NC(C)=O)C(C)C [Compound 12, Ac-Val-Gln-aIle-Val-aTyr-Lys-NH2] (Ac-VQ[X1]V[X2]K-NH2)	significantly reduce	non-fibrillary amorphous aggregates; also recorded: non-fibrillary, amorphous aggregates	stability in human serum [2]: remarkably stable; also recorded: serum stable; IC50 [3]: ~5 µM; cytotoxic effect, MTT assay [4]: no appreciable toxicity; also recorded: non-cytotoxic; also recorded: non-toxic to neuronal cells; effect on lag-time of Aβ42 aggregation ([6]; any of the concentrations tested): no effect on lag-time; inhibitory effect on Aβ42 aggregation ([6]; compound up to 4-fold molar excess (160 μM), ThT): no inhibitory effect; seeding capacity of monomeric tauP301L pre-treated with inhibitor ([5]; 0.009 μM inhibitor): less pronounced; seeding capacity of monomeric tauP301L pre-treated with inhibitor ([5]; 1.9 μM inhibitor): significantly reduced seeding capacity
